# Laboratory results from patent US4012576A, “Antibiotic complex Bu 2183” (priority 1975, dated 1977).
# Read-outs that look alike come from different tables or passages of the source.
# How the values were obtained:
# Assay type in all cases: cell-based
# E. coli A20107 = experiment: MIC, two-fold agar dilution on Nutrient Agar; conditions: Escherichia coli, read-out: MIC
# Method: (§1) The minimum inhibitory concentrations (MIC) of Bu-2183 A and B were determined against a wide variety of bacteria by the two-fold agar dilution method on Nutrient Agar plates. The inocula-replicating device of Steers et al. was used. Inoculum size was adjusted to be 10^4 dilution of overnight culture of the test organisms in Heart Infusion Broth (Difco). The results are shown in Table 6 along with those of kanamycin which was comparatively tested as a reference antibiotic.
# E. coli NIHJ [1] = experiment: MIC, two-fold agar dilution on Nutrient Agar; conditions: Escherichia coli, read-out: MIC
# Method: as §1
# E. coli PO 1495 = experiment: MIC, two-fold agar dilution on Nutrient Agar
# Method: as §1
# E. coli R 5 = experiment: MIC, two-fold agar dilution on Nutrient Agar; conditions: Escherichia coli
# Method: as §1
# [2] = tested on: K. pneumoniae Type 22-3038; experiment: MIC, two-fold agar dilution on Nutrient Agar
# Method: as §1
# Pr. vulgaris A9436 = experiment: MIC, two-fold agar dilution on Nutrient Agar; conditions: Proteus vulgaris, read-out: MIC
# Method: as §1
# Prov. stuartii A20894 = experiment: MIC, two-fold agar dilution on Nutrient Agar
# Method: as §1
# Ps. aeruginosa A20896 = experiment: MIC, two-fold agar dilution on Nutrient Agar; conditions: Pseudomonas aeruginosa, read-out: MIC
# Method: as §1
# Ps. aeruginosa GN 315 = experiment: MIC, two-fold agar dilution on Nutrient Agar
# Method: as §1
# Ps. aeruginosa No. 130 = experiment: MIC, two-fold agar dilution on Nutrient Agar
# Method: as §1
# S. aureus A20239 = experiment: MIC, two-fold agar dilution on Nutrient Agar; conditions: Staphylococcus aureus, read-out: MIC
# Method: as §1
# S. aureus D133 = experiment: MIC, two-fold agar dilution on Nutrient Agar; conditions: Staphylococcus aureus, read-out: MIC
# Method: as §1
# S. aureus D193 = experiment: MIC, two-fold agar dilution on Nutrient Agar
# Method: as §1
# Ser. marcescens A20019 = experiment: MIC, two-fold agar dilution on Nutrient Agar
# Method: as §1
# B. subtilis PCI 219 = experiment: Effect of media pH on MIC, two-fold agar dilution; conditions: Bacillus subtilis, PCI219, Table 8, Nutrient Agar
# From the text: (§2) Effect of media pH on the MIC of Bu-2183 A was studied by two-fold agar dilution method using Nutrient Agar Medium at pH 6.0, 7.0, 8.0 and 9.0.
# E. coli NIHJ [3] = experiment: Effect of media pH on MIC, two-fold agar dilution; conditions: Escherichia coli, Table 8, Nutrient Agar
# From the text: as §2
# K. pneumoniae D 11 = experiment: Effect of media pH on MIC, two-fold agar dilution; conditions: Klebsiella pneumoniae, D11, Table 8, Nutrient Agar
# From the text: as §2
# Ps. aeruginosa D 15 = experiment: Effect of media pH on MIC, two-fold agar dilution; conditions: Pseudomonas aeruginosa, D15, Table 8, Nutrient Agar
# From the text: as §2
# S. aureus Smith = experiment: Effect of media pH on MIC, two-fold agar dilution; conditions: Staphylococcus aureus, Table 8, Nutrient Agar
# From the text: as §2
# [4] = tested on: E. coli, K. pneumoniae, Ps. aeruginosa, S. aureus, B. subtilis; experiment: Effect of media pH on MIC (overall); conditions: Nutrient Agar, pH 6.0-9.0
# From the text: as §2
# [5] = Escherichia coli, PO1495, Table 6, Ec-2, read-out: MIC
# [6] = Klebsiella pneumoniae, TYPE223038, Table 6, Kp-8, read-out: MIC
# [7] = Providencia stuartii, A20894, Table 6, Ps-2, read-out: MIC
# [8] = Pseudomonas aeruginosa, GN315, Table 6, Pa-27, read-out: MIC
# [9] = Pseudomonas aeruginosa, NO.130, Table 6, Pa-16, read-out: MIC
# [10] = Staphylococcus aureus, D193, Table 6, Sa-3, read-out: MIC
# [11] = Serratia marcescens, A20019, Table 6, Sm-1, read-out: MIC
compound,measurement,setting,value
CCC(=O)NC1C(CO)OC(OC(C(O)CN)C(N)C(O)CO)C(O)C1O (stereo not drawn) [Bu-2183 A],MIC,"E. coli A20107; A20107, Table 6, Ec-49",12.5 mg/L
same,MIC,"E. coli A20107; A20107, Table 7, Ec-49",25 mg/L
same,MIC,"E. coli NIHJ [1]; Table 6, Ec-1",12.5 mg/L
same,MIC,"E. coli NIHJ [1]; Table 7, Ec-1",25 mg/L
same,MIC,E. coli PO 1495; [5],25 mg/L
same,MIC,"E. coli PO 1495; Table 7, Ec-2",25 mg/L
same,MIC,"E. coli R 5; R5, Table 6, Ec-55",25 mg/L
same,MIC,"E. coli R 5; R5, Table 7, Ec-55",6.3 mg/L
same,MIC,[2]; [6],25 mg/L
same,MIC,"[2]; Table 7, Kp-8 (printed Type 22-3028)",25 mg/L
same,MIC,"Pr. vulgaris A9436; A9436, Table 6, Pv-1",12.5 mg/L
same,MIC,"Pr. vulgaris A9436; A9436, Table 7, Pv-1",25 mg/L
same,MIC,Prov. stuartii A20894; [7],> 100 mg/L
same,MIC,"Prov. stuartii A20894; Table 7, Ps-2",> 100 mg/L
same,MIC,"Ps. aeruginosa A20896; A20896, Table 6, Pa-24",25 mg/L
same,MIC,"Ps. aeruginosa A20896; A20896, Table 7, Pa-24",50 mg/L
same,MIC,Ps. aeruginosa GN 315; [8],25 mg/L
same,MIC,"Ps. aeruginosa GN 315; Table 7, Pa-27",25 mg/L
same,MIC,Ps. aeruginosa No. 130; [9],25 mg/L
same,MIC,"Ps. aeruginosa No. 130; Table 7, Pa-16",25 mg/L
same,MIC,"S. aureus A20239; A20239, Table 6, Sa-10",25 mg/L
same,MIC,"S. aureus A20239; A20239, Table 7, Sa-10",50 mg/L
same,MIC,"S. aureus D133; D133, Table 6, Sa-4",25 mg/L
same,MIC,"S. aureus D133; D133, Table 7, Sa-4",50 mg/L
same,MIC,S. aureus D193; [10],25 mg/L
same,MIC,"S. aureus D193; Table 7, Sa-3",25 mg/L
same,MIC,Ser. marcescens A20019; [11],> 100 mg/L
same,MIC,"Ser. marcescens A20019; Table 7, Sm-1",> 100 mg/L
same,MIC,B. subtilis PCI 219; pH 6,50 mg/L
same,MIC,B. subtilis PCI 219; pH 7,6.3 mg/L
same,MIC,B. subtilis PCI 219; pH 8,6.3 mg/L
same,MIC,B. subtilis PCI 219; pH 9,6.3 mg/L
same,MIC,E. coli NIHJ [3]; pH 6,> 50 mg/L
same,MIC,E. coli NIHJ [3]; pH 7,50 mg/L
same,MIC,E. coli NIHJ [3]; pH 8,25 mg/L
same,MIC,E. coli NIHJ [3]; pH 9,12.5 mg/L
same,MIC,K. pneumoniae D 11; pH 6,12.5 mg/L
same,MIC,K. pneumoniae D 11; pH 7,12.5 mg/L
same,MIC,K. pneumoniae D 11; pH 8,12.5 mg/L
same,MIC,K. pneumoniae D 11; pH 9,3.1 mg/L
same,MIC,Ps. aeruginosa D 15; pH 6,> 50 mg/L
same,MIC,Ps. aeruginosa D 15; pH 7,50 mg/L
same,MIC,Ps. aeruginosa D 15; pH 8,25 mg/L
same,MIC,Ps. aeruginosa D 15; pH 9,12.5 mg/L
same,MIC,S. aureus Smith; pH 6,> 50 mg/L
same,MIC,S. aureus Smith; pH 7,50 mg/L
same,MIC,S. aureus Smith; pH 8,50 mg/L
same,MIC,S. aureus Smith; pH 9,50 mg/L
same,effect of media pH on activity,[4],increased at alkaline pH and decreased at acidic pH
CC(=O)NC1C(CO)OC(OC(C(O)CN)C(N)C(O)CO)C(O)C1O (stereo not drawn) [Bu-2183 B],MIC,"E. coli A20107; A20107, Table 6, Ec-49",50 mg/L
same,MIC,"E. coli NIHJ [1]; Table 6, Ec-1",50 mg/L
same,MIC,E. coli PO 1495; [5],50 mg/L
same,MIC,"E. coli R 5; R5, Table 6, Ec-55",100 mg/L
same,MIC,[2]; [6],100 mg/L
same,MIC,"Pr. vulgaris A9436; A9436, Table 6, Pv-1",50 mg/L
same,MIC,Prov. stuartii A20894; [7],> 100 mg/L
same,MIC,"Ps. aeruginosa A20896; A20896, Table 6, Pa-24",100 mg/L
same,MIC,Ps. aeruginosa GN 315; [8],50 mg/L
same,MIC,Ps. aeruginosa No. 130; [9],100 mg/L
same,MIC,"S. aureus A20239; A20239, Table 6, Sa-10",100 mg/L
same,MIC,"S. aureus D133; D133, Table 6, Sa-4",> 100 mg/L
same,MIC,S. aureus D193; [10],25 mg/L
same,MIC,Ser. marcescens A20019; [11],> 100 mg/L
